# Test results published in patent US20080045611A1, “Methods for the therapeutic use of a carbonic anhydrase inhibitor for reducing spinal cord edema” (priority 2006, published 2008).
# Assay: Case: patient with ascending spinal cord edema after thoracic fracture and spinal cord injury, treated intravenously
# Format: in vivo
# Details: spinal cord edema on MRI after laminectomy and surgical fixation, intravenous dose of 500 mg in sterile saline, within a short period
# Method: A patient, suffers a fractured thoracic vertebrae and spinal cord injury. […] An intravenous dose of 500 mg of acetazolamide in sterile saline is administered.
compound,measurement,value
CC(=O)Nc1nnc(S(N)(=O)=O)s1 [acetazolamide],neurological outcome (sensory and motor functions),regains sensory and motor functions in their upper extremities
